Data taken from patent publication US4157399A, “Benzo(B)thiophenes” (Parcor, priority 1976, dated 1979).

Legend:
Type in all cases: in vivo
[1] = Rabbit fed cholesterol-enriched (1%) feedstuff, dosage of elements causing dyslipemia; design: total cholesterol (T) / esterified cholesterol (E) / Kunkelphenol test (K2) / Burstein dextrane test (B) / serum lipids (LS): unit not given here; details: 100 mg/Kg orally
Experimental: (§1) The animals divided into several batches of 15 animals are fed with feedstuff enriched in cholesterol (1%). Batch A serves as control and is not treated, the other batches also receive the derivatives to be tested at a dose of 100 mg/Kg, administered orally, suspended in aqueous solution of gum arabic at 5%. On the first day of experimentation and then every 15 days for 75 days biological examinations are conducted on all the animals, during which the various elements causing dyslipemia are dosed; total cholesterol (T), esterified cholesterol (E), free cholesterol (L), esterification ratio (E/T), Kunkel-Phenol test (K1), Kunkelphenol test (K2), Burstein dextrane test (B) and serum lipids (LS).

[2] = system: fatty infiltrations of the liver; assay: Rabbit autopsy, mark for fatty infiltrations of the liver; details: mark of 0 to 3; end of test (75 days); 100 mg/Kg orally
Experimental: as §1
(§2) At the end of the test all the animals are killed and an autopsy is carried out; a macroscopic examination is then conducted on the livers and aortas and a mark of 0 to 3 is given to the amount of fatty infiltrations of the liver and 0 to 4 to the intensity of aortic atheromatous lesions.

[3] = system: aortic atheromatous lesions; assay: Rabbit autopsy, mark for aortic atheromatous lesions; details: mark of 0 to 4; end of test (75 days); 100 mg/Kg orally
Experimental: as §1, §2

[4] = Propylthiouracil test, free and total cholesterol in the rat; details: 11th day; propylthiouracil-treated rats; oral 100 mg/Kg
Experimental: Experiments were carried out according to the propylthiouracil test (RANNEY & Coll., J. PHARMACOL. EXPER. THERAP. 1963, 142, 132-136). The propyl-thiouracil administered to adult rats has the property of making them hypercholesterolemic: the plasma level of cholesterol increases by approximately 15% under these conditions. Experiments are conducted on various batches of rats, the control batch receiving only propylthiouracil and the other treated batches also receiving the composition of the invention at an oral dose of 100 mg/Kg.
On the 11th day of experimentation blood samples are taken and the free cholesterol and total cholesterol is dosed.

Compound | Burstein dextrane test (B) ([1]; 1st day) | Kunkel-Phenol test (K1) ([1]; 1st day) | Kunkelphenol test (K2) ([1]; 1st day) | esterification ratio (E/T) ([1]; 1st day) | esterified cholesterol (E) ([1]; 1st day) | free cholesterol (L) ([1]; 1st day) | serum lipids (LS) ([1]; 1st day) | total cholesterol (T) ([1]; 1st day) | Burstein dextrane test (B) ([1]; 30th day) | Kunkel-Phenol test (K1) ([1]; 30th day) | Kunkelphenol test (K2) ([1]; 30th day) | esterification ratio (E/T) ([1]; 30th day) | esterified cholesterol (E) ([1]; 30th day) | free cholesterol (L) ([1]; 30th day) | serum lipids (LS) ([1]; 30th day) | total cholesterol (T) ([1]; 30th day) | Burstein dextrane test (B) ([1]; 75th day) | Kunkel-Phenol test (K1) ([1]; 75th day) | Kunkelphenol test (K2) ([1]; 75th day) | esterification ratio (E/T) ([1]; 75th day) | also measured
c1ccc(CN(Cc2ccccc2)c2c(-c3ccccc3)sc3ccccc23)cc1 [derivative 19, 3-dibenzylamino-2-phenyl-benzo(b)thiophene] | 10,9 | 8,0 | 13,1 | 0,50 | 0,28 | 0,29 | 1,97 | 0,57 | 2,3 | 18,4 | 25,3 | 0,64 | 0,95 | 0,52 | 2,84 | 1,47 | 36,1 | 33,5 | 46,5 | 0,61 | esterified cholesterol (E) ([1]; 75th day): 1,79; free cholesterol (L) ([1]; 75th day): 1,12; serum lipids (LS) ([1]; 75th day): 4,08; total cholesterol (T) ([1]; 75th day): 2,91; fatty infiltrations of the liver [2]: 1,2; aortic atheromatons lesions [3]: 1,3; Free cholesterol [4]: 0,14 g/l; Total cholesterol [4]: 0,58 g/l
c1ccc(CNc2c(-c3ccccc3)sc3ccccc23)cc1 [derivative n° 1, 3-benzylamino-2-phenyl-benzo(b)thiophene] | 10,8 | 7,9 | 12,8 | 0,53 | 0,28 | 0,24 | 1,98 | 0,52 | 21,3 | 18,8 | 25,7 | 0,63 | 0,95 | 0,55 | 2,9 | 1,50 | 36,2 | 33,3 | 44,2 | 0,62 | esterified cholesterol (E) ([1]; 75th day): 1,84; free cholesterol (L) ([1]; 75th day): 1,12; serum lipids (LS) ([1]; 75th day): 4,18; total cholesterol (T) ([1]; 75th day): 2,96; fatty infiltrations of the liver [2]: 1,1; aortic atheromatons lesions [3]: 1,6; Free cholesterol [4]: 0,15 g/l; Total cholesterol [4]: 0,61 g/l
